Experiment [1] concerns the target T1, human recombinant L1196M ALK kinase domain (amino acids 1093-1411) (Homo sapiens, UniProt Q9UM73, L1196M).
T1 construct: ALK kinase domain (amino acids 1093-1411); made in house
Briefly: L1196M mutant ALK enzyme assay (microfluidic mobility shift). The class given is biochemical. Particulars: ATP 60 μM, 0.5 nM enzyme, competitive inhibition fit; read-out: L1196M ALK enzyme assay (Ki).

Experiment [2] deals with T2, human recombinant wild-type ALK kinase domain (amino acids 1093-1411) (Homo sapiens, UniProt Q9UM73).
T2 construct: ALK kinase domain (amino acids 1093-1411); made in house
Nature of the experiment: Wild-type ALK enzyme assay (microfluidic mobility shift). The class given is biochemical. Particulars: ATP 60 μM, competitive inhibition fit, read-out: WT ALK enzyme assay (Ki).
Description: The reactions were incubated for 1 h at room temperature, stopped by the addition of 0.1 M EDTA, pH 8, and the extent of reactions (˜15-20% conversion with no inhibitor) was determined after electrophoretic separation of the fluorescently labeled peptide substrate and phosphorylated product on an LabChip EZ Reader II (Caliper Life Sciences, Hopkinton, Mass.).

Experiment [3] has as its target T3, WT EML4-ALK (NIH-3T3 EML4-ALK wt v1 cells) (Homo sapiens, UniProt Q9UM73).
T3 construct: expressed in transfected cells; the other entry of the earlier key: EML4 (Q9HC35, Echinoderm microtubule-associated protein-like 4)
Nature of the experiment: Cellular phospho-ALK (Tyr1604) ELISA assay for WT EML4-ALK. Particulars: 1 hour, read-out: ELISA assay for WT EML4-ALK (IC50). It counts as cell-based.
Description: Cellular Phospho-ALK (Tyr1604) ELISA Assay for EML4-ALK:
The cells were maintained at 37° C. in a 5% CO2 incubator in DMEM (Invitrogen, Carlsbad, Calif.) medium supplemented with 1% L-glutamine, 1% penicillin and streptomycin, 1 ug/ml puromycin and 10% new born calf serum (NCS) in T-75 flasks.
Cells were washed with PBS and re-suspended in DMEM medium supplemented with 0.5% NCS and 1% pen/strep and seeded into 96-well plates at density of 20,000 cells/well/100 μl and incubated in the incubator at 37° C. and 5% CO2. After 20 hours of incubation, 100 μl of assay media (DMEM) in presence of designated PF-compounds concentrations or controls (DMSO) were added into plates and incubated for 1 hour in the incubator. Media was then removed and lysis buffer, containing phosphatase inhibitors and phenylmethanesulfonyl fluoride (PMSF), was added to wells and shaken at 4° C. for 30 minutes to generate protein lysates.
A phospho-ALK (Tyr1604) rabbit antibody was coated onto the 96-well microplates. 50 μl of cell lysates were added to the antibody coated plate and incubated at room temperature for 2 hours. Following extensive washing with 0.1% Tween 20 in PBS to remove unbound materials, ALK mouse mAb was added to detect captured phospho-ALK (Tyr1604) and phospho-ALK fusion proteins. Anti-mouse IgG, HRP-linked antibody was then used to recognize the bound detection antibody. Finally, the chemiluminescent reagent was added and incubated for 10 minutes for signal development. The assay plates were read in the Envision plate reader in the luminescent mode. IC50 values were calculated by a concentration-response curve fitting using a four-parameter analytic method.

Experiment [4] has as its target T4, L1196M EML4-ALK (NIH-3T3 EML4-ALK v1 L1196M cells) (Homo sapiens, UniProt Q9UM73, L1196M).
T4 construct: expressed in transfected cells; the other entry of the earlier key: EML4 (Q9HC35, Echinoderm microtubule-associated protein-like 4)
Briefly: Cellular phospho-ALK (Tyr1604) ELISA assay for L1196M EML4-ALK. The class given is cell-based. To be noted: NIH-3T3 EML4-ALK v1 L1196M cells, 1 hour, phospho-ALK (Tyr1604); read-out: ELISA assay for L1196M EML4-ALK (IC50).

Some results are limits rather than exact numbers.

Turning to `CC1c2nn(C)c(C#N)c2-c2cnc(N)c(n2)OCc2cc(F)ccc2C(=O)N1C` (single isomer, unassigned) [Example 79, 7-amino-12-fluoro-2,16,17-trimethyl-15-oxo-10,15,16,17-tetrahydro-2H-8,4-(azeno)pyrazolo[4,3-h][2,5,11]benzoxadiazacyclotetradecine-3-carbonitrile], the Ki in experiment [1] was found to be 2.9 nM; in experiment [2] it was 1.18 nM. In addition, the IC50 in experiment [3] was found to be 42.8 nM; in experiment [4] it was 180 nM.
For the compound `CC1Oc2cc(cnc2N)-c2c(nn(C)c2C#N)CN(C)C(=O)c2c(F)cccc21` (single isomer, unassigned) [Example 52, 7-amino-14-fluoro-2,10,16-trimethyl-15-oxo-10,15,16,17-tetrahydro-2H-8,4-(metheno)pyrazolo[4,3-h][2,5,11]benzoxadiazacyclotetradecine-3-carbonitrile], the inhibitory constant (Ki) was found to be 10.2 nM in experiment [1] and 1.2 nM in experiment [2]. The half-maximal inhibitory concentration (IC50) is 4.78 nM in experiment [3] and 296 nM in experiment [4].
The corresponding values for `COc1nn(C)c2c1-c1cnc(N)c(c1)OC(C)c1cccnc1C(=O)N(C)C2` (single isomer, unassigned) [Example 65, 7-amino-3-methoxy-1,10,16-trimethyl-16,17-dihydro-1H-8,4-(metheno)-pyrazolo[4,3-g]pyrido[2,3-l][1,4,10]oxadiazacyclotetradecin-15(10H)-one] are 9.8 nM, 0.88 nM, 9.36 nM and 313 nM.
As for `CC1Oc2nc(cnc2N)-c2c(nn(C)c2C#N)CN(C)C(=O)c2ccc(F)cc21` (single isomer, unassigned) [Example 32, 7-amino-12-fluoro-2,10,16-trimethyl-15-oxo-10,15,16,17-tetrahydro-2H-8,4-(azeno)pyrazolo[4,3-h][2,5,11]benzoxadiazacyclotetradecine-3-carbonitrile], the results for the Ki in experiment [1] and in experiment [2] were less than 0.1 nM and less than 0.2 nM, respectively. For the same compound, the values for the 50% inhibitory concentration (IC50) in experiment [3] and in experiment [4] were 0.841 nM and 5.36 nM, respectively.
The corresponding values for `COc1nn(C)c2c1-c1cnc(N)c(n1)OCc1cc(F)ccc1C(=O)N(C)C2C` (single isomer, unassigned) [Example 122, 7-amino-12-fluoro-3-methoxy-1,16,17-trimethyl-16,17-dihydro-1H-8,4-(azeno)pyrazolo[4,3-h][2,5,11]benzoxadiazacyclotetradecin-15(10H)-one] are 0.7 nM, 0.27 nM, 9.27 nM and 52.3 nM.
For “7-amino-12-fluoro-3-methoxy-1,16,17-trimethyl-16,17-dihydro-1H-8,4-(azeno)pyrazolo[4,3-h][2,5,11]benzoxadiazacyclotetradecin-15(10H)-one [Example 125]” the same measures were 0.49 nM, 0.11 nM, 2.3 nM and 49.1 nM.
For `COc1cnc2cc1-c1cnc(N)c(c1)O[C@H](C)c1cc(F)ccc1C(=O)N(C)CC2` [Example 116, (1R)-4-amino-19-fluoro-9-methoxy-1,15-dimethyl-14,15-dihydro-1H-3,7:8,12-di(metheno)-2,5,11,15-benzoxatriazacyclooctadecin-16(13H)-one] the same measures were greater than 3000 nM, greater than 1500 nM, greater than 10000 nM and greater than 10000 nM.
In the case of `CC1Oc2cc(cnc2N)-c2c(nn(C)c2C#N)COCc2ccc(F)cc21` (stereo not drawn) [Example 119], the results for the Ki in experiment [1] and in experiment [2] were 13.4 nM and 1.6 nM, respectively. Also, the figures for the IC50 in experiment [3] and in experiment [4] were 7.79 nM and 264 nM, respectively.
The corresponding values for `COc1c2c(nn1C)CN(C)C(=O)c1ccc(F)cc1C(C)Oc1cc-2cnc1N` (single isomer, unassigned) [Example 19, 7-amino-12-fluoro-3-methoxy-2,10,16-trimethyl-16,17-dihydro-2H-8,4-(metheno)pyrazolo[4,3-h][2,5,11]benzoxadiazacyclotetradecin-15(10H)-one] are 0.9 nM, less than 0.2 nM, 4.89 nM and 110 nM.

As usually defined, the Ki is the equilibrium dissociation constant of an inhibitor or competing ligand from its target. Usually IC50 stands for the concentration at which inhibition is half-maximal.

These data come from US8680111B2 (Pfizer Inc., priority 2012, dated 2014).
